Read-outs that look alike come from different tables or passages of the source.

This assay has as its system caspase-3 cleavage. As to conditions: 2.5 μg/ml; for suppression of hypoxia-induced caspase-3 cleavage after pulse dosing: 16 hours washout, hypoxia 0.5% O2 24 hours; for caspase-3 cleavage, both dosing protocols: continuous or pulse, hypoxia.

Method: Cells were exposed to 0.5% O2 for 18 hours unless otherwise specified.

`C[C@H]1c2ccc(C(C)(C)C)c(O)c2C(O)=C2C(=O)[C@]3(O)C(O)=C(C(N)=O)C(=O)[C@@H](N(C)C)[C@@H]3[C@@H](O)[C@@H]21` [9-TB, 9-t-butyl doxycycline]: the “caspase-3 cleavage, both dosing protocols” value was “both drugs interfered with caspase-3 cleavage”. Also, the “suppression of hypoxia-induced caspase-3 cleavage after pulse dosing” value (“suppression” below) (12 hours pulse) is “less impressive”. In addition, the “suppressive effect on caspase-3 cleavage vs washout period length” value (12 hours pulse, washout 0, 12, 24 hours, hypoxia 0.5% O2 18 hours) is “augmented by shorter washout periods with a sharp decline occurring between the 12 and 24-hour chase periods”.
In the case of `CC1c2cccc(O)c2C(=O)C2=C(O)C3(O)C(=O)C(C(N)=O)=C(O)C(N(C)C)C3C(O)C21` (stereo not drawn) [Dox, 4-[Dimethylamino]-1,4,4a,5,5a,6,11,12a-octahydro-3,5,10,12,12apentahydroxy-6-methyl-1,11-dioxo-2-naphthacenecarboxamide], the “caspase-3 cleavage, both dosing protocols” value was “both drugs interfered with caspase-3 cleavage”. For the same compound, for the setting “12 hours pulse”, the “suppression” value is “ameliorated dox-mediated suppression”. The “suppression” value (12 hours pulse, listed as doxycycline) is recorded as “did ameliorate its suppressive effects on caspase cleavage”.
